Results on five substances are retold here after patent publication US9833497B2, “Human originated EGF domain proteins and use of the same” (CHENGDU SOURCEBIO LIMITED-LIABILITY COMPANY, priority 2013, dated 2017).

What all share (assay type): cell-based
One test has as its system Moraxella catarrhalis. The test can be described thus: MIC against Gram-negative bacteria: Moraxella catarrhalis. The conditions noted are these: 5×10^5 CFU/mL; for MIC (μg/mL) M. catarrhalis: 96-well plate, 37° C., 10 h; for MIC M. catarrhalis: two-fold serial dilution. The method in brief:
(§1)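 LB broth cultures at McFarland 0.5, spun down, resuspended, diluted to 5×10^5 CFU/mL final. Two-fold serial dilutions of purified human EGF domain proteins, triplicate. 37° C, 175 rpm shaking. Endpoint: no visible growth.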

The subject of another test is Proteus mirabilis. The experiment in a line: MIC against Gram-negative bacteria: Proteus mirabilis. Particulars: 5×10^5 CFU/mL; for MIC (μg/mL) P. mirabilis: 96-well plate, 37° C., 10 h; for MIC P. mirabilis: two-fold serial dilution. The method in brief:
as §1

Another test deals with Citrobacter diversus. The test can be described thus: MIC against Gram-negative bacteria: Citrobacter diversus. The conditions noted are these: 5×10^5 CFU/mL; for MIC (μg/mL) C. diversus: 96-well plate, 37° C., 10 h; for MIC C. diversus: two-fold serial dilution. The method in brief:
as §1

The test system of a further test is Enterobacter cloacae. The test can be described thus: MIC against Gram-negative bacteria: Enterobacter cloacae. The conditions noted are these: 5×10^5 CFU/mL; for MIC (μg/mL) E. cloacae: 96-well plate, 37° C., 10 h; for MIC E. cloacae: two-fold serial dilution. The method in brief: as §1
In the next test the test system is Pseudomonas aeruginosa. The test can be described thus: MIC against Gram-negative bacteria: Pseudomonas aeruginosa. Particulars: 5×10^5 CFU/mL; for MIC (μg/mL) P. aeruginosa: 96-well plate, 37° C., 10 h; for MIC P. aeruginosa: two-fold serial dilution. The method in brief:
as §1

In the next test the test system is Serratia marcescens. The test can be described thus: MIC against Gram-negative bacteria: Serratia marcescens. The conditions noted are these: 5×10^5 CFU/mL; for MIC (μg/mL) S. marcescens: 96-well plate, 37° C., 10 h; for MIC S. marcescens: two-fold serial dilution. The method in brief:
as §1

Another test deals with E. coli DH5α. The test can be described thus: Antibacterial activity: MIC and growth curve against E. coli DH5α in 96-well plate. The conditions noted are these: minimal inhibitory concentration against E. coli DH5α; 96-well plate, 5×10^5 CFU/mL, 37° C., judged after 8 h. The method in brief: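 Log-phase DH5α (OD600 about 0.5, 37° C, 185 rpm in LB) was pelleted, resuspended in fresh LB and seeded at 5×10^5 CFU/mL with recombinant protein at 50, 25 and 12.5 μg/mL (two-fold series), in triplicate. Plates were shaken at 175 rpm, 37° C, and OD600 was read every 30 min. MIC was the lowest concentration with no growth.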

Another test concerns Klebsiella pneumonia. The test can be described thus: MIC against Gram-negative bacteria: Klebsiella pneumonia. Particulars: 5×10^5 CFU/mL; for MIC (μg/mL) K. pneumonia: 96-well plate, 37° C., 10 h; for MIC K. pneumonia: two-fold serial dilution. The method in brief: as §1
The test system of another test is E. coli BL21. The experiment in a line: MIC against Gram-negative bacteria: E. coli BL21. Particulars: 5×10^5 CFU/mL; for MIC (μg/mL) E. coli BL21: 96-well plate, 37° C., 10 h; for MIC E. coli BL21: two-fold serial dilution. The method in brief: as §1
A further test concerns Aeromonas hydrophila. The test can be described thus: MIC against Gram-negative bacteria: Aeromonas hydrophila. Particulars: 5×10^5 CFU/mL; for MIC (μg/mL) A. hydrophila: 96-well plate, 37° C., 10 h; for MIC A. hydrophila: two-fold serial dilution. The procedure, abridged:
as §1

In another test the test system is Proteus vulgaris. The test can be described thus: MIC against Gram-negative bacteria: Proteus vulgaris. Particulars: 5×10^5 CFU/mL; for MIC (μg/mL) P. vulgaris: 96-well plate, 37° C., 10 h; for MIC P. vulgaris: two-fold serial dilution. The procedure, abridged:
as §1

By MIC is commonly meant the smallest concentration in the dilution series that meets the test's criterion for growth inhibition. Higher therefore signals a less susceptible organism. Consider “PRT38 (VRDLCGQRTTDACEQLCDPETGECSCHEGYAPDPVHRHLCV; listed as Homo sapiens)”, for which, in the test on Moraxella catarrhalis (Moraxella catarrhalis), the “MIC (μg/mL) M. catarrhalis” value turned out to be 12.5 µg/mL. Besides, the “MIC (μg/mL) P. mirabilis” value with Proteus mirabilis (Proteus mirabilis) was determined as 25 µg/mL. Also, the “MIC (μg/mL) C. diversus” value in the test with Citrobacter diversus (Citrobacter diversus) stood at 50 µg/mL. In addition, in the test with Enterobacter cloacae (Enterobacter cloacae), the “MIC (μg/mL) E. cloacae” value came to 25 µg/mL. Also, the “MIC (μg/mL) P. aeruginosa” value in the test with Pseudomonas aeruginosa (Pseudomonas aeruginosa) came to 12.5 µg/mL. In addition, in the test with Serratia marcescens (Serratia marcescens), the “MIC (μg/mL) S. marcescens” value turned out to be 50 µg/mL. The substance also had an MIC against E. coli DH5α of 50 µg/mL. Besides, the “MIC (μg/mL) K. pneumonia” value with Klebsiella pneumonia (Klebsiella pneumonia) was 50 µg/mL. In the test on E. coli BL21 (E. coli BL21), the “MIC (μg/mL) E. coli BL21” value was determined as 25 µg/mL. For the same substance, in the test with Aeromonas hydrophila (Aeromonas hydrophila), the “MIC (μg/mL) A. hydrophila” value was 100 µg/mL. Also, in the test on Proteus vulgaris (Proteus vulgaris), the “MIC (μg/mL) P. vulgaris” value was 50 µg/mL.

Consider “PRT1189 (ECVPYPGCVHGSCVEPWQCNCETNWGGLLCD; listed as Homo sapiens)”, for which the “MIC M. catarrhalis” value against Moraxella catarrhalis (10 h cultivation at 37° C.) was 12.5 µg/mL. Moreover, the “MIC P. mirabilis” value in the test with Proteus mirabilis (10 h cultivation at 37° C.) is 25 µg/mL. Also, the “MIC C. diversus” value in the test with Citrobacter diversus (10 h cultivation at 37° C.) was 50 µg/mL. For the same substance, the “MIC E. cloacae” value in the test on Enterobacter cloacae (10 h cultivation at 37° C.) came to 12.5 µg/mL. Besides, in the test on Pseudomonas aeruginosa (10 h cultivation at 37° C.), the “MIC P. aeruginosa” value worked out at 25 µg/mL. Besides, in the test on Serratia marcescens (10 h cultivation at 37° C.), the “MIC S. marcescens” value was found to be 12.5 µg/mL. This substance yielded an MIC against E. coli DH5α of 50 µg/mL. In addition, the “MIC K. pneumonia” value against Klebsiella pneumonia (10 h cultivation at 37° C.) worked out at 50 µg/mL. Also, in the test on E. coli BL21 (10 h cultivation at 37° C.), the “MIC E. coli BL21” value was determined as 12.5 µg/mL. The “MIC A. hydrophila” value in the test with Aeromonas hydrophila (10 h cultivation at 37° C.) worked out at 25 µg/mL. Besides, the “MIC P. vulgaris” value against Proteus vulgaris (10 h cultivation at 37° C.) was 50 µg/mL.

In the case of “PRT1128 (VANSCTPNPCENDGVCTDIGGDFRCRCPAGFIDKTCS; listed as Homo sapiens)”, in the test with Moraxella catarrhalis (10 h cultivation at 37° C.), the “MIC M. catarrhalis” value amounted to 50 µg/mL. Moreover, the “MIC P. mirabilis” value against Proteus mirabilis (10 h cultivation at 37° C.) stood at 12.5 µg/mL. Besides, the “MIC C. diversus” value with Citrobacter diversus (10 h cultivation at 37° C.) came to 12.5 µg/mL. For the same substance, the “MIC E. cloacae” value in the test on Enterobacter cloacae (10 h cultivation at 37° C.) was determined as 12.5 µg/mL. For the same substance, the “MIC P. aeruginosa” value in the test with Pseudomonas aeruginosa (10 h cultivation at 37° C.) is 12.5 µg/mL. The “MIC S. marcescens” value in the test with Serratia marcescens (10 h cultivation at 37° C.) was 12.5 µg/mL. In addition, the MIC in the test with E. coli DH5α amounted to 12.5 µg/mL. Besides, the “MIC K. pneumonia” value against Klebsiella pneumonia (10 h cultivation at 37° C.) amounted to 50 µg/mL. The “MIC E. coli BL21” value in the test on E. coli BL21 (10 h cultivation at 37° C.) is 50 µg/mL. Further, in the test on Aeromonas hydrophila (10 h cultivation at 37° C.), the “MIC A. hydrophila” value worked out at 50 µg/mL. The “MIC P. vulgaris” value in the test on Proteus vulgaris (10 h cultivation at 37° C.) is 50 µg/mL.

For “PRT24 (ELDLCYSNPCRNGGACARREGGYTCVCRPRFTGEDCE; listed as Homo sapiens)”, the “MIC (μg/mL) M. catarrhalis” value in the test on Moraxella catarrhalis (Moraxella catarrhalis) came to 12.5 µg/mL. In the test with Proteus mirabilis (Proteus mirabilis), the “MIC (μg/mL) P. mirabilis” value is 25 µg/mL. Moreover, in the test with Citrobacter diversus (Citrobacter diversus), the “MIC (μg/mL) C. diversus” value turned out to be 25 µg/mL. For the same substance, in the test with Enterobacter cloacae (Enterobacter cloacae), the “MIC (μg/mL) E. cloacae” value was 12.5 µg/mL. Besides, the “MIC (μg/mL) P. aeruginosa” value in the test with Pseudomonas aeruginosa (Pseudomonas aeruginosa) was determined as 12.5 µg/mL. In addition, the “MIC (μg/mL) S. marcescens” value against Serratia marcescens (Serratia marcescens) is 25 µg/mL. In the test on E. coli DH5α, this substance returned a minimal inhibitory concentration (MIC) of 12.5 µg/mL. In addition, the “MIC (μg/mL) K. pneumonia” value in the test on Klebsiella pneumonia (Klebsiella pneumonia) came out at 25 µg/mL. Also, the “MIC (μg/mL) E. coli BL21” value with E. coli BL21 (E. coli BL21) was determined as 25 µg/mL. Also, the “MIC (μg/mL) A. hydrophila” value against Aeromonas hydrophila (Aeromonas hydrophila) was determined as 12.5 µg/mL. Besides, in the test with Proteus vulgaris (Proteus vulgaris), the “MIC (μg/mL) P. vulgaris” value stood at 12.5 µg/mL.

With “PRT1353 (SDMSCPNDCHQHGRCVNGMCVCDDGYTGEDCR; listed as Homo sapiens)”, in the test with Moraxella catarrhalis (Moraxella catarrhalis, 10 h cultivation at 37° C.), the “MIC against M. catarrhalis” value is 25 µg/mL. Further, the “MIC against P. mirabilis” value in the test with Proteus mirabilis (Proteus mirabilis, 10 h cultivation at 37° C.) amounted to 12.5 µg/mL. Further, the “MIC against C. diversus” value against Citrobacter diversus (Citrobacter diversus, 10 h cultivation at 37° C.) was 50 µg/mL. Also, the “MIC against E. cloacae” value in the test with Enterobacter cloacae (Enterobacter cloacae, 10 h cultivation at 37° C.) came to 12.5 µg/mL. For the same substance, the “MIC against P. aeruginosa” value against Pseudomonas aeruginosa (Pseudomonas aeruginosa, 10 h cultivation at 37° C.) was found to be 50 µg/mL. For the same substance, in the test on Serratia marcescens (Serratia marcescens, 10 h cultivation at 37° C.), the “MIC against S. marcescens” value amounted to 50 µg/mL. For the same substance, in the test with E. coli DH5α, the MIC came to 12.5 µg/mL. In addition, in the test on Klebsiella pneumonia (Klebsiella pneumonia, 10 h cultivation at 37° C.), the “MIC against K. pneumonia” value came to 25 µg/mL. For the same substance, the “MIC against E. coli BL21” value in the test with E. coli BL21 (E. coli BL21, 10 h cultivation at 37° C.) came to 25 µg/mL. For the same substance, the “MIC against A. hydrophila” value in the test with Aeromonas hydrophila (Aeromonas hydrophila, 10 h cultivation at 37° C.) was 25 µg/mL. The “MIC against P. vulgaris” value against Proteus vulgaris (Proteus vulgaris, 10 h cultivation at 37° C.) was 25 µg/mL.
